Measured values published in ChEMBL document CHEMBL2417445, “Access to 7β-analogs of codeine with mixed μ/δ agonist activity via 6,7-α-epoxide opening” (Bioorg Med Chem Lett, 2013).

Tests used:
Mu-type opioid receptor [1] = biological target: T1, Mu-type opioid receptor (Homo sapiens, UniProt P35372); assay: Agonist activity at human MOR assessed as inhibition of forskolin-stimulated cAMP accumulation after 30 mins by cell based TR-FRET assay; format: functional
Homo sapiens [2] = species: Homo sapiens; assay: Selectivity ratio of EC50 for human KOR to EC50 for human DOR
[3] = biological target: Kappa-type opioid receptor (Homo sapiens, UniProt P41145); format: functional, cell-based
Kappa-type opioid receptor (Homo sapiens, UniProt P41145), sequence (P41145 whole entry): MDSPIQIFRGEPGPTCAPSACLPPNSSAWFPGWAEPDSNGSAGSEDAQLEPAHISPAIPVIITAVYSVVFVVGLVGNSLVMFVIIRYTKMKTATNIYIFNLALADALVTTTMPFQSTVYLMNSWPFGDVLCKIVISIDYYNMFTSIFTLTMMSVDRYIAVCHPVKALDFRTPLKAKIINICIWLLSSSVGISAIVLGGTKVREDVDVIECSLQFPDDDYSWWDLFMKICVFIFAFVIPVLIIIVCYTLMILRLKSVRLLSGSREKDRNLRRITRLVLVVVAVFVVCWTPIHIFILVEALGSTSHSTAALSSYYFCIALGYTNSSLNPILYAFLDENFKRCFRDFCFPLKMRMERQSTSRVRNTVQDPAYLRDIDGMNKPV
Description: Agonist activity at human KOR assessed as inhibition of forskolin-stimulated cAMP accumulation after 30 mins by cell based TR-FRET assay

Mu-type opioid receptor [4] = biological target: Mu-type opioid receptor (Mus musculus, UniProt P42866); assay: Agonist activity at mouse MOR assessed as inhibition of forskolin-stimulated cAMP accumulation after 30 mins by cell based TR-FRET assay; format: functional
Mu-type opioid receptor (Mus musculus, UniProt P42866), sequence (P42866 whole entry): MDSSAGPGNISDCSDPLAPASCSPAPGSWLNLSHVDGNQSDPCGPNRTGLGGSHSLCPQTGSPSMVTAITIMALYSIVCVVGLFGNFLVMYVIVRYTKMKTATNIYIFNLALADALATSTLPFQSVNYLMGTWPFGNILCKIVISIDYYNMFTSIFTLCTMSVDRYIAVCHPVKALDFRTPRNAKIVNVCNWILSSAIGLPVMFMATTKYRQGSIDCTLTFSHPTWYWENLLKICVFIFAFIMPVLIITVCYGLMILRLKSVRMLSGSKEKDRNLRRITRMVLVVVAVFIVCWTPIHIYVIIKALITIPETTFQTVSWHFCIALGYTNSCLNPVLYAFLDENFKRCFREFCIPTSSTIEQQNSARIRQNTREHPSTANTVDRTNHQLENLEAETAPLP

[5] = biological target: Mu-type opioid receptor (Mus musculus) (UniProt P42866); assay: Activation of mouse MOR assessed as inhibition of forskolin-stimulated cAMP accumulation after 30 mins by cell based TR-FRET assay relative to DAMGO; format: functional
Mu-type opioid receptor (Mus musculus), sequence (P42866 whole entry): as above

Homo sapiens [6] = species: Homo sapiens; assay: Selectivity ratio of EC50 for human KOR to EC50 for human MOR
[7] = biological target: T2, Delta-type opioid receptor (Homo sapiens, UniProt P41143); assay: Activation of human DOR assessed as inhibition of forskolin-stimulated cAMP accumulation after 30 mins by cell based TR-FRET assay relative to DPDPE; format: functional
T2 sequence (P41143 whole entry): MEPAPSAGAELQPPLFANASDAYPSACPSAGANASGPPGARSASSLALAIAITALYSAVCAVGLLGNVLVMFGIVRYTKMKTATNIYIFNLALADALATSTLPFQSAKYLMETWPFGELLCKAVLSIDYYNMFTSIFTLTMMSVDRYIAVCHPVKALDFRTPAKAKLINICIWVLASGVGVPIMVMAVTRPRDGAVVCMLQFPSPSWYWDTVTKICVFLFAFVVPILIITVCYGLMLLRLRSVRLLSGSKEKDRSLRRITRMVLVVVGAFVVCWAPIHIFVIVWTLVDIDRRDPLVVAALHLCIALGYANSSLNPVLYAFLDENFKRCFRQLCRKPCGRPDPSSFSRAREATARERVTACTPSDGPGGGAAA

[8] = biological target: T2, Delta-type opioid receptor; assay: Agonist activity at human DOR assessed as inhibition of forskolin-stimulated cAMP accumulation after 30 mins by cell based TR-FRET assay; format: functional
[9] = biological target: Kappa-type opioid receptor (Mus musculus, UniProt P33534); assay: Agonist activity at mouse KOR assessed as inhibition of forskolin-stimulated cAMP accumulation after 30 mins by cell based TR-FRET assay; format: functional
Kappa-type opioid receptor (Mus musculus, UniProt P33534), sequence (P33534 whole entry): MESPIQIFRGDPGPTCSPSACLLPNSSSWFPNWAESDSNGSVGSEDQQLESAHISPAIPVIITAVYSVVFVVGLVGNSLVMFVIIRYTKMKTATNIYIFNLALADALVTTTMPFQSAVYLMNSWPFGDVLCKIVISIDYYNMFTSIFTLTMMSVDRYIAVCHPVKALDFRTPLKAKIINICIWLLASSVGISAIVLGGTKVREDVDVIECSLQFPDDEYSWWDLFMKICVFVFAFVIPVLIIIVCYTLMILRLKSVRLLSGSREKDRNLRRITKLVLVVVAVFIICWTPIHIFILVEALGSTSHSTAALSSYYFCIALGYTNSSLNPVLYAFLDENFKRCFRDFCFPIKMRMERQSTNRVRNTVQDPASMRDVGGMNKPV

Mu-type opioid receptor [10] = biological target: T1, Mu-type opioid receptor; assay: Ratio of morphine EC50 to compound EC50 for human MOR

T1 sequence (P35372 whole entry): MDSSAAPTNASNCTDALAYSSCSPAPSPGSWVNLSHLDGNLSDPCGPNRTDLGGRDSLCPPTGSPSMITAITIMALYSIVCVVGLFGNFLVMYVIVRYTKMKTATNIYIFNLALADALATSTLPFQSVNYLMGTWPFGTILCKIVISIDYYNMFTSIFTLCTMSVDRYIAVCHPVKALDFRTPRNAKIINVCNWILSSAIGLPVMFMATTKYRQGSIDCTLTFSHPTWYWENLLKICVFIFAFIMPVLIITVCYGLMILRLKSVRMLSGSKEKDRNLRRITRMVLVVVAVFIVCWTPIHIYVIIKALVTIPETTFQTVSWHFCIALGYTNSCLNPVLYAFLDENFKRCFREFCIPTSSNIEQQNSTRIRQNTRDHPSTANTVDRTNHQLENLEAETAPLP

Row | SMILES | EC50 (Mu-type opioid receptor [1]) [µM] | Ratio EC50 (Homo sapiens [2]) | EC50 [3] [µM] | EC50 (Mu-type opioid receptor [4]) [nM] | inhibition [5] [%] | Ratio EC50 (Homo sapiens [6]) | inhibition [7] [%] | EC50 [8] [µM] | EC50 [9] [µM] | Ratio EC50 (Mu-type opioid receptor [10])
1 | COc1ccc2c3c1O[C@H]1[C@@H](O)[C@H](OC)C[C@H]4[C@@H](C2)N(C)CC[C@@]341 | 16 | 4 | 50 | 4000 | 86 | 3 | 84 | 13 |  | 
2 | COc1ccc2c3c1O[C@H]1[C@@H](O)[C@H](F)C[C@H]4[C@@H](C2)N(C)CC[C@@]341 | 40 | 1 |  | 8000 | 79 | 2 | 90 | 79 |  | 
3 | CN1CC[C@]23c4c5ccc(O)c4O[C@H]2[C@@H](O)C=C[C@H]3[C@H]1C5 |  |  |  |  | 97 |  | 69 |  |  | 
4 | COc1ccc2c3c1O[C@H]1C(=O)CC[C@@]4(O)[C@@H](C2)N(C)CC[C@]314 [OXYCODONE] |  |  |  | 160 | 97 |  | 93 |  | 16 | 
5 | C[C@@H]1C[C@H]2[C@H]3Cc4ccc(O)c5c4[C@@]2(CCN3C)[C@@H](O5)[C@H]1O | 0.02 | 20 | 1.6 | 10 | 99 | 80 | 107 | 0.08 | 1.6 | 2
6 | COc1cc(C)c2c3c1O[C@H]1[C@H](F)[C@H](C)C[C@H]4[C@@H](C2)N(C)CC[C@@]341 | 3.2 | 1 | 5 | 800 | 78 | 1 | 86 | 3.2 | 10 | 
7 | COc1ccc2c3c1O[C@H]1[C@@H](O)[C@H](O)C[C@H]4[C@@H](C2)N(C)CC[C@@]341 | 16 | 1 | 126 | 6300 | 96 | 8 | 117 | 100 | 159 | 
8 | COc1ccc2c3c1O[C@H]1[C@@H](O)[C@H](C)C[C@H]4[C@@H](C2)N(C)CC[C@@]341 | 2 | 8 | 25 | 600 | 97 | 13 | 97 | 3.2 | 32 | 
9 | COc1ccc2c3c1O[C@H]1[C@@H](OC)[C@H](C)C[C@H]4[C@@H](C2)N(C)CC[C@@]341 | 3.2 | 13 | 32 | 800 | 92 | 10 | 94 | 2.5 | 50 | 
10 | COc1cc(C)c2c3c1O[C@H]1[C@@H](O)[C@H](C)C[C@H]4[C@@H](C2)N(C)CC[C@@]341 | 5 | 1 |  | 2000 | 77 | 3 | 73 | 16 | 50 | 
11 | C[C@@H](NC(=O)[C@@H](N)Cc1ccc(O)cc1)C(=O)NCC(=O)N(C)[C@@H](Cc1ccccc1)C(=O)NCCO [DAMGO] |  |  |  |  |  |  | 99 |  |  | 
